Measured values: US10377778B2, “Lead and thorium compounds” (Sciencons AS, priority 2017, dated 2019)

Experiments:
[1] = tested on: C4-2 PSMA-positive xenografts; experiment: Biodistribution of radiolabelled ligands (^224Ra/^212Pb solutions, ^177Lu) in nude mice with C4-2 xenografts
Description: Each group usually consisted of three mice. […] Approximately 16 kBq of ^224Ra/^212Pb was injected in each animal, i.e., approximately 0.2 nmol of ligand per mouse. Animals were given anaesthesia and sacrificed by cervical dislocation followed by dissection and harvesting of tissue-, blood- and urine samples. The samples were weighed and counted on a gamma counter.
Three mice in each group. […] The molar concentration was the same for both products, i.e., 12.5 nmol per MBq. Approximately 16 kBq of ^224Ra/^212Pb was injected in each animal, i.e., approximately 0.2 nmol of ligand per mouse. Animals were given anaesthesia and sacrificed by cervical dislocation followed by dissection and harvesting of tissue-, blood- and urine samples. The samples were weighed and counted on a gamma counter.
Methods: Tumor and kidney uptake of ^212Pb-labeled p-SCN-Bn-TCMC-PSMA ligand 1 and ^177Lu-labeled PSMA-617 was compared at 1 hours and 4 hours after administration of the products by intravenous injection into nude mice with C4-2 xenografts as described in Example 9.

[2] = tested on: C4-2 PSMA positive human prostate cells xenografts; experiment: Comparative therapy experiment in nude mice with C4-2 xenografts; type: in vivo; settings: 52 MBq ^177Lu-PSMA-617 or 320 kBq ^212Pb-ligand 1
Description: Male nude mice were inoculated in the flanks with C4-2 PSMA positive human prostate cells and 2 weeks later when tumors were 5-7 mm in diameters. Groups of 8 animals each received saline, 52 MBq of ^177Lu-PSMA-617 or 320 kBq of ^212Pb-p-SCN-Bn-TCMC-PSMA ligand 1. Animals were sacrificed when tumor size reached 20 mm due to animal welfare requirements. […] For ^212Pb the effective half-life was assumed to be 10.6 h, 10% of injected dose per gram decays in tumor and 100% of radiation in a tumor is absorbed in the tumor, 100% retention of ^212Pb and daughters in the tumors and 8 MeV radiation energy per decay. The tumor dosimetry for the injected activities gave on average 35.9 Gy to tumors for ^177Lu-PSMA-617 and 2.06 Gy to tumors for ^212Pb-p-SCN-Bn-TCMC-PSMA ligand 1 groups respectively.

PC3 PIP model = settings: mouse xenografts, model used by other researchers; cited from earlier work
[3] = Stability testing of ^212Pb-labeled ligands in vitro (TLC radiochemical purity in PBS and FBS); type: physicochemical; settings: 37° C.
Description: Thin layer chromatography (TLC) was performed using chromatography strips (model #150-772, Biodex Medical Systems Inc, Shirley, N.Y., USA). A formulation buffer (FB) consisting of 7.5% human serum albumin and 5 mM EDTA in DPBS and adjusted to approximately pH 7 with NaOH was mixed with the antibody conjugates in ratio 2:1 for at least 5 minutes before application to the strips to determine free radionuclide. A small beaker with about 0.5 ml of 0.9% NaCl was used to place strips with a sample spot in. To the strip was typically added 1-4 μl of sample at approximately 10% above the bottom of the strip. After the solvent front had moved to about 20% from the top of the strip, the strip was cut in half and each half was placed in a 5 ml test tube for counting. In this system radiolabeled ligand stays at the bottom half while radionuclide complexed with EDTA migrates to the upper half. It was verified that free cations of both ^212Pb and ^177Lu would complex with EDTA and moved to the top.
TLC analyses were performed at 1 h, 4 h, 24 h and 48 h of incubation. […]

C4-2 cells = experiment: Prostate cancer cell binding of ^212Pb-labeled ligands; set-up: species or system human; settings: labeled with ^212Pb
Description: The cell binding fractions measured by adding about 1 ng of radioligand to 0.2 ml of C4-2 cells (5×10^7 cells per ml) in a 5 ml test tube and incubate for 1 h before measuring applied activity, wash cells 3 times with 0.5 ml 0.5% bovine serum albumin in DPBS and thereafter recount the washed cell pellet. […] Nonspecific binding was measured by blocking the cells with excess 10 μg/ml of unlabelled ligand before adding radioligand.

In the case of `O=C([O-])CN1CCN(CC(=O)[O-])CCN(CC(=O)NCC2CCC(C(=O)N[C@@H](Cc3ccc4ccccc4c3)C(=O)NCCCC[C@H](NC(=O)N[C@@H](CCC(=O)O)C(=O)O)C(=O)O)CC2)CCN(CC(=O)[O-])CC1.[177Lu+3]` (some centres unmarked) [^177Lu-PSMA-617, reference compound], the Average tumor-to-kidney ratio ([1]; 1-hour point after administration) was 0.17, the Tumor-to-kidney ratio ([1]; 4-hour timepoint) was 0.8 and the “Kidney uptake (average)” value ([1]; 4 hours after i.v. injection) was 17.4 % ID/g. For the same molecule, the “Tumor uptake (average)” value ([1]; 4 hours after i.v. injection) was 13.6 % ID/g, the “Typical PSMA-ligand uptake of the xenograft model used” value ([1]; mouse xenografts, tumor model with intermediary level of uptake) was 10-15 % ID/g and the “Survival at day 30 after treatment” value ([2]; groups of 8, saline group 0%) was 12.5%. The Median survival ([2]; saline group 15 days) was 20 days and the “Typical uptake in PC3 PIP model” value (PC3 PIP model) was 30-40 % ID/g.
Work on `O=C(O)CCC(NC(=O)NC(CCCCNC(=O)C(Cc1ccc2ccccc2c1)NC(=O)C1CCC(CNC(=O)CN2CCN(CC(=O)O)CCN(CC(=O)O)CCN(CC(=O)O)CC2)CC1)C(=O)O)C(=O)O.[212Pb+2]` (centres unmarked) [^212Pb-PSMA-617, reference compound] yielded a Radiochemical purity ([3]; FBS, 1 h since start of incubation, in ^224Ra/^212Pb solution) of 92.13%, a Radiochemical purity ([3]; FBS, 4 h) of 94.37% and a Radiochemical purity ([3]; FBS, 24 h) of 94.54%. It also gave a Radiochemical purity ([3]; FBS, 48 h) of 95.65%, a Radiochemical purity ([3]; PBS, 1 h since start of incubation, in ^224Ra/^212Pb solution) of 91.62% and a Radiochemical purity ([3]; PBS, 4 h) of 94.33%. It also gave a Radiochemical purity ([3]; PBS, 24 h) of 93.26% and a Radiochemical purity ([3]; PBS, 48 h) of 93.17%.
For `NC(=O)CN1CCN(CC(N)=O)CCN(CC(N)=O)C(Cc2ccc(NC(=S)NC[C@H]3CC[C@H](C(=O)N[C@@H](Cc4ccc5ccccc5c4)C(=O)NCCCC[C@H](NC(=O)N[C@@H](CCC(=O)O)C(=O)O)C(=O)O)CC3)cc2)CN(CC(N)=O)CC1` (stereo partly drawn) [p-SCN-Bn-TCMC-PSMA ligand 1, (((1S)-1-carboxy-5-((2S)-3-(naphthalen-2-yl)-2-((1r,4S)-4-((3-(4-((1,4,7,10-tetrakis(2-amino-2-oxoethyl)-1,4,7,10-tetraazacyclododecan-2-yl)methyl)phenyl)thioureido)methyl)cyclohexane-1-carboxamido)propanamido)pentyl)carbamoyl)-L-glutamic acid; trifloroacetic acid (1:4)], the “Difference in cell-binding versus radiolabelled PSMA-617” value (C4-2 cells) was “No significant difference”.
